From patent EP0688431B1, “METHOD FOR SCREENING CATALYTIC NON-ENZYME POLYPEPTIDES AND PROTEINS” (YEDA RESEARCH AND DEVELOPMENT CO. LTD., priority 1993, dated 1994) come the findings set out here.

In the assay the target is antibody D2.3. Kind of assay: Binding of the product to the catalytic antibody. On the set-up: species or system Balb/c mice. The conditions noted are these: binding to antibody D2.3.

Turning to `O=[N+]([O-])c1ccc(CO)cc1` [p-nitrobenzyl alcohol], binding was put at a Kd of 52 µM.
